Like-named read-outs stand apart in the source and are kept apart here.

As usually defined, the inhibition is the drop in the measured response relative to a control, in per cent.

For the test, the target named is T1, human α-synuclein (Homo sapiens, UniProt P37840).
T1 construct: the full-length gene for untagged human α-synuclein was inserted; made in house; host or cells: E. coli BL21(DE3), plasmid derived from pT7 or pET11a
Description: Cell-free Thioflavin T assay of α-synuclein aggregation (αSyn ThT Assay). Type of test: biochemical. The conditions noted are these: αSyn 50 μM, compounds 100 μM. A digest of the protocol: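 Untagged full-length human α-synuclein from E. coli, 50 μM, with 20-40 μM ThT, 1% DMSO, compound at 20-100 μM and a glass bead, 37° C. with shaking. Fluorescence (ex 438/em 495 nm) read hourly to 73 h. Compound-only background subtracted and values normalised to vehicle at 36-72 h or final timepoint, giving % inhibition.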

Where [1] appears, read: class symbol, read-out: αSyn ThT Assay % inhibition, activity range.
Where [2] appears, read: mean percent inhibition relative to DMSO control, read-out: αSyn ThT Assay % inhibition.

As to `CCCN1CC(C(=O)O)n2c(c(-c3cccc(C(F)(F)F)c3)c(Cc3cccc4ccccc34)c(NC(=O)CC)c2=O)S1(=O)=O` (stereo not shown) [Compound 153, 8-(naphthalen-1-ylmethyl)-6-oxo-7-propionamido-2-propyl-9-(3-(trifluoromethyl)phenyl)-3,4-dihydro-2H,6H-pyrido[1,2-e][1,2,5]thiadiazine-4-carboxylic acid 1,1-dioxide], the inhibition at 100 µM is 31 to 60% under setting [1] and 48% under setting [2].
For `CCCNC(=O)c1c(Cc2cccc3ccccc23)c(-c2cccc(C(F)(F)F)c2)c2n(c1=O)C(C(=O)O)CN(C)S2(=O)=O` (stereo not shown) [Compound 154, 2-methyl-8-(naphthalen-1-ylmethyl)-6-oxo-7-(propylcarbamoyl)-9-(3-(trifluoromethyl)phenyl)-3,4-dihydro-2H,6H-pyrido[1,2-e][1,2,5]thiadiazine-4-carboxylic acid 1,1-dioxide], in that order: over 60% and 89%.
For `O=C(O)C1CN(Cc2ccccc2)c2c(-c3cccc(C(F)(F)F)c3)c(C(F)(F)c3cccc4ccccc34)c(Br)c(=O)n21` (stereo not shown) [Compound 155, 1-benzyl-6-bromo-7-(difluoro(naphthalen-1-yl)methyl)-5-oxo-8-(3-(trifluoromethyl)phenyl)-1,2,3,5-tetrahydroimidazo[1,2-a]pyridine-3-carboxylic acid], the inhibition at 100 µM was 31 to 60% under setting [1] and 60% under setting [2].
The like results for `CCNC(=O)c1c(Cc2cccc3ccccc23)c(-c2cccc(C(F)(F)F)c2)c2n(c1=O)C(C(=O)O)CN(C)S2(=O)=O` (stereo not shown) [Compound 156, 7-(ethylcarbamoyl)-2-methyl-8-(naphthalen-1-ylmethyl)-6-oxo-9-(3-(trifluoromethyl)phenyl)-3,4-dihydro-2H,6H-pyrido[1,2-e][1,2,5] thiadiazine-4-carboxylic acid 1,1-dioxide] were, in that order, over 60% and 70%.
For `CN1CC(C(=O)O)n2c(c(-c3cccc(C(F)(F)F)c3)c(Cc3cccc4ccccc34)c(C(=O)NC(C)(C)C)c2=O)S1(=O)=O` (stereo not shown) [Compound 158, 7-(tert-butylcarbamoyl)-2-methyl-8-(naphthalen-1-ylmethyl)-6-oxo-9-(3-(trifluoromethyl)phenyl)-3,4-dihydro-2H,6H-pyrido[1,2-e][1,2,5]thiadiazine-4-carboxylic acid 1,1-dioxide], in that order: over 60% and 79%.
For `CN1CC(C(=O)O)n2c(c(-c3cccc(C(F)(F)F)c3)c(Cc3cccc4ccccc34)c(C(=O)N3CCOCC3)c2=O)S1(=O)=O` (stereo not shown) [Compound 160, 2-methyl-7-(morpholine-4-carbonyl)-8-(naphthalen-1-ylmethyl)-6-oxo-9-(3-(trifluoromethyl)phenyl)-3,4-dihydro-2H,6H-pyrido[1,2-e][1,2,5] thiadiazine-4-carboxylic acid 1,1-dioxide], in that order: 11 to 30% and 17%.
For the compound `CCc1c(Cc2cccc3ccccc23)c(-c2cccc(C(F)(F)F)c2)c2n(c1=O)C(C(=O)O)CN2Cc1ccc(OC)cc1` (stereo not shown) [Compound 161, 6-ethyl-1-(4-methoxybenzyl)-7-(naphthalen-1-ylmethyl)-5-oxo-8-(3-(trifluoromethyl)phenyl)-1,2,3,5-tetrahydroimidazo[1,2-a]pyridine-3-carboxylic acid], the inhibition at 100 µM is 31 to 60% under setting [1] and 44% under setting [2].
Consider `CCCN1CC(C(=O)O)n2c1c(-c1cccc(C(F)(F)F)c1)c(Cc1cccc3ccccc13)c(Cl)c2=O` (stereo not shown) [Compound 162, 6-chloro-7-(naphthalen-1-ylmethyl)-5-oxo-1-propyl-8-(3-(trifluoromethyl)phenyl)-1,2,3,5-tetrahydroimidazo[1,2-a]pyridine-3-carboxylic acid], for which the inhibition at 100 µM is over 60% under setting [1] and 67% under setting [2].
For `CCCCN1CC(C(=O)O)n2c1c(-c1cccc(C(F)(F)F)c1)c(Cc1cccc3ccccc13)c(Cl)c2=O` (stereo not shown) [Compound 163, 1-butyl-6-chloro-7-(naphthalen-1-ylmethyl)-5-oxo-8-(3-(trifluoromethyl)phenyl)-1,2,3,5-tetrahydroimidazo[1,2-a]pyridine-3-carboxylic acid], the inhibition at 100 µM under setting [1] lay in the range of 31 to 60% and the inhibition at 100 µM under setting [2] worked out at 47%.
Regarding `CC(C)CN1CC(C(=O)O)n2c1c(-c1cccc(C(F)(F)F)c1)c(Cc1cccc3ccccc13)c(Cl)c2=O` (stereo not shown) [Compound 164, 6-chloro-1-isobutyl-7-(naphthalen-1-ylmethyl)-5-oxo-8-(3-(trifluoromethyl)phenyl)-1,2,3,5-tetrahydroimidazo[1,2-a]pyridine-3-carboxylic acid], the inhibition at 100 µM by setting is: under setting [1], 31 to 60%; under setting [2], 43%.
For `O=C(O)C1CN(CC2CCCC2)c2c(-c3cccc(C(F)(F)F)c3)c(Cc3cccc4ccccc34)c(Cl)c(=O)n21` (stereo not shown) [Compound 167, 6-chloro-1-(cyclopentylmethyl)-7-(naphthalen-1-ylmethyl)-5-oxo-8-(3-(trifluoromethyl)phenyl)-1,2,3,5-tetrahydroimidazo[1,2-a]pyridine-3-carboxylic acid], the inhibition at 100 µM runs as follows: under setting [1], 31 to 60%; under setting [2], 45%.
Consider `N#Cc1cccc(CN2CC(C(=O)O)n3c2c(-c2cccc(C(F)(F)F)c2)c(Cc2cccc4ccccc24)c(Cl)c3=O)c1` (stereo not shown) [Compound 168, 6-chloro-1-(3-cyanobenzyl)-7-(naphthalen-1-ylmethyl)-5-oxo-8-(3-(trifluoromethyl)phenyl)-1,2,3,5-tetrahydroimidazo[1,2-a]pyridine-3-carboxylic acid], for which the inhibition at 100 µM runs as follows: under setting [1], 31 to 60%; under setting [2], 43%.
The like results for `O=C(O)C1CN(Cc2cccnc2)c2c(-c3cccc(C(F)(F)F)c3)c(Cc3cccc4ccccc34)c(Cl)c(=O)n21` (stereo not shown) [Compound 169, 6-chloro-7-(naphthalen-1-ylmethyl)-5-oxo-1-(pyridin-3-ylmethyl)-8-(3-(trifluoromethyl)phenyl)-1,2,3,5-tetrahydroimidazo[1,2-a]pyridine-3-carboxylic acid] were, in that order, 31 to 60% and 33%.
Regarding `O=C(O)C1CN(Cc2ccc(CO)cc2)c2c(-c3cccc(C(F)(F)F)c3)c(Cc3cccc4ccccc34)c(Cl)c(=O)n21` (stereo not shown) [Compound 170, 6-chloro-1-(4-(hydroxymethyl)benzyl)-7-(naphthalen-1-ylmethyl)-5-oxo-8-(3-(trifluoromethyl)phenyl)-1,2,3,5-tetrahydroimidazo[1,2-a]pyridine-3-carboxylic acid], the inhibition at 100 µM by setting is: under setting [1], 11 to 30%; under setting [2], 30%.
Turning to `CCCN1CC(C(=O)O)n2c(c(-c3cccc(C(F)(F)F)c3)c(Cc3cccc4ccccc34)c(C(N)=O)c2=O)S1(=O)=O` (stereo not shown) [Compound 172, 7-carbamoyl-8-(naphthalen-1-ylmethyl)-6-oxo-2-propyl-9-(3-(trifluoromethyl)phenyl)-3,4-dihydro-2H,6H-pyrido[1,2-e][1,2,5]thiadiazine-4-carboxylic acid 1,1-dioxide], the inhibition at 100 µM runs as follows: under setting [1], over 60%; under setting [2], 98%.
On to `CN(C)C(=O)c1c(Cc2cccc3ccccc23)c(-c2cccc(C(F)(F)F)c2)c2n(c1=O)C(C(=O)O)CN(C)S2(=O)=O` (stereo not shown) [Compound 173, 7-(dimethylcarbamoyl)-2-methyl-8-(naphthalen-1-ylmethyl)-6-oxo-9-(3-(trifluoromethyl)phenyl)-3,4-dihydro-2H,6H-pyrido[1,2-e] [1,2,5] thiadiazine-4-carboxylic acid 1,1-dioxide], for which the inhibition at 100 µM was over 60% under setting [1] and 86% under setting [2].
For `O=C(O)C1CN(Cc2ccncc2)c2c(-c3cccc(C(F)(F)F)c3)c(Cc3cccc4ccccc34)c(Cl)c(=O)n21` (stereo not shown) [Compound 174, 6-chloro-7-(naphthalen-1-ylmethyl)-5-oxo-1-(pyridin-4-ylmethyl)-8-(3-(trifluoromethyl)phenyl)-1,2,3,5-tetrahydroimidazo[1,2-a]pyridine-3-carboxylic acid], in that order: 11 to 30% and 23%.
The like results for `CC(C)N1CC(C(=O)O)n2c(c(-c3cccc(C(F)(F)F)c3)c(Cc3cccc4ccccc34)c(C(N)=O)c2=O)S1(=O)=O` (stereo not shown) [Compound 175, 7-carbamoyl-2-isopropyl-8-(naphthalen-1-ylmethyl)-6-oxo-9-(3-(trifluoromethyl)phenyl)-3,4-dihydro-2H,6H-pyrido[1,2-e][1,2,5]thiadiazine-4-carboxylic acid 1,1-dioxide] were, in that order, over 60% and 98%.
The like results for `NC(=O)c1c(Cc2cccc3ccccc23)c(-c2cccc(C(F)(F)F)c2)c2n(c1=O)C(C(=O)O)CN(C1CCCC1)S2(=O)=O` (stereo not shown) [Compound 176, 7-carbamoyl-2-cyclopentyl-8-(naphthalen-1-ylmethyl)-6-oxo-9-(3-(trifluoromethyl)phenyl)-3,4-dihydro-2H,6H-pyrido[1,2-e][1,2,5]thiadiazine-4-carboxylic acid 1,1-dioxide] were, in that order, over 60% and 98%.
`CCCCN1CC(C(=O)O)n2c(c(-c3cccc(C(F)(F)F)c3)c(Cc3cccc4ccccc34)c(C(N)=O)c2=O)S1(=O)=O` (stereo not shown) [Compound 177, 2-butyl-7-carbamoyl-8-(naphthalen-1-ylmethyl)-6-oxo-9-(3-(trifluoromethyl)phenyl)-3,4-dihydro-2H,6H-pyrido[1,2-e][1,2,5]thiadiazine-4-carboxylic acid 1,1-dioxide]: the inhibition at 100 µM is over 60% under setting [1] and 97% under setting [2].

(Values after patent US20230131899A1, “INHIBITORS OF MICROBIALLY INDUCED AMYLOID” (Axial Therapeutics, Inc., priority 2020, published 2023).)
